Reference: article PMC5722316, “Synthesis of novel purpurealidin analogs and evaluation of their effect on the cancer-relevant potassium channel KV10.1” (PLoS ONE, 2017)
Like-named read-outs stand apart in the source and are kept apart here.

Assay: Cytotoxicity assay (CellTox Green Dye, IncuCyte)
Format: cell-based
Details: indicative, from AUC vs concentration (2-100 μM), read-out: Cytotoxic effect (EC50)
Protocol: Cell lines SH-SY5Y (ACC 209), DU145 (ACC 261), LNCaP (ACC 256) and NIH-3T3 (ACC 59) were purchased from DSMZ (Germany). MDA-MB-435S (HTB 129) and hTERT RPE-1 (CRL 4000) were obtained from ATCC (USA). Cell lines were cultured in their recommended media Supplemented with 10% or 15% FCS (PAA laboratories, Germany) at 37°C in humidified 5% CO2 atmosphere. All media were purchased from ThermoFisher Scientific (Waltham, Massachusetts, United States).
Cell proliferation, cytotoxicity and apoptosis were assessed in a 96-well microtiter plate by live-cell imaging using an IncuCyte Zoom System (Essen BioScience, UK). Cell proliferation was monitored in terms of cell confluency (%). Cell cytotoxicity was assessed by the CellTox Green Dye assay (Promega, Madison, Wisconsin, USA). The Incucyte Caspase-3/7 apoptosis assay (Essen BioScience, UK) was used to evaluate the effect of compound 5 on the apoptotic pathway. As negative controls media supplemented with 0.05% of DMSO were used.
Live-cell imaging data were collected from the IncuCyte Zoom software and analyzed using GraphPad Prism 5 software. Proliferation was measured as Phase Object Confluence (%), cytotoxicity and apoptosis were measured as Green Object Count (1/mm^2). All data are represented as mean S.E.M of n = 6 different wells.
The following concentrations of compound 5 were added to the different cell lines, 100 μM, 50 μM, 20 μM, 10 μM, 5 μM and 2 μM to assess its effect on cell proliferation (S1 Fig) and cytotoxicity (S2 Fig). Indicative IC50-values for the proliferation assays were obtained by plotting the areas under the curve (AUC × 10^3) against the tested compound 5 concentrations and by fitting the curve with a logistic dose-response equation. The EC50-values for the cytotoxicity assays were calculated correspondingly (S3 Fig). Although more data points would be necessary to calculate precise IC50 and EC50-values, it is clear that compound 5 inhibits the proliferation and induces cytotoxicity in all the tested cell lines in the low to middle micromolar range.

## COc1ccc(C(=O)NCCc2cc(Br)c(OCCCN(C)C)c(Br)c2)cc1Cl [Compound 5, 3-Chloro-N-[3,5-dibromo-4-[3-(dimethylamino)propoxy]phenethyl]-4-methoxybenzamide]
human, DU145 cells
  EC50: 60.4 µM
human, LNCaP cells
  EC50: 40.4 µM
human, MDA-MB-435S cells
  EC50: 16.5 µM
human, SH-SY5Y cells
  EC50: 15.3 µM
human, hTERT RPE-1 cells
  EC50: 15.6 µM
mouse, NIH-3T3 cells
  EC50: 4.58 µM
